# Source: PubChem BioAssay AID330 (DTP/NCI, 2004)
# Where “and” joins values, the source holds several entries; their conditions need not be identical. Equal values may be shown once. Inconclusive results and toxic doses are left out.
# System: P388 leukemia ip, CD2F1 mice, survival T/C
# Assay: NCI In Vivo Anticancer Drug Screen. Data for tumor model P388 Leukemia (intraperitoneal) in CD2F1 (CDF1) mice
# Settings: endpoint: median survival time, higher = longer survival
# Outline: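 Mice carrying the transplanted tumor received test compound or vehicle. Survival was recorded in each group, and the value is the treated-group measurement divided by that of the vehicle-treated control group.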
# [1] = dose: 25.0 mg/kg/injection, schedule: Q04DX003 (ip), vehicle: saline with Tween-80
# [2] = dose: 50.0 mg/kg/injection, schedule: Q01DX009 (ip), vehicle: saline with Tween-80
# [3] = dose: 50.0 mg/kg/injection, schedule: Q04DX003 (ip), vehicle: saline with Tween-80
# [4] = dose: 100.0 mg/kg/injection, schedule: Q04DX003 (ip), vehicle: saline with Tween-80
# [5] = dose: 100.0 mg/kg/injection, schedule: Q01DX001 (ip), vehicle: Klucel (hydroxypropylcellulose) (HPC)
# [6] = dose: 200.0 mg/kg/injection, schedule: Q01DX001 (ip), vehicle: Klucel (hydroxypropylcellulose) (HPC)
# [7] = dose: 400.0 mg/kg/injection, schedule: Q01DX001 (ip), vehicle: Klucel (hydroxypropylcellulose) (HPC)
# [8] = dose: 100.0 mg/kg/injection, schedule: Q01DX009 (ip), vehicle: saline with Tween-80
# [9] = dose: 200.0 mg/kg/injection, schedule: Q01DX009 (ip), vehicle: saline with Tween-80
# [10] = dose: 25.0 mg/kg/injection, schedule: Q01DX009 (ip), vehicle: saline with Tween-80
# [11] = dose: 100.0 mg/kg/injection, schedule: Q01DX009 (ip), vehicle: Klucel (hydroxypropylcellulose) (HPC)
# [12] = dose: 200.0 mg/kg/injection, schedule: Q01DX009 (ip), vehicle: Klucel (hydroxypropylcellulose) (HPC)
# [13] = dose: 200.0 mg/kg/injection, schedule: Q04DX003 (ip), vehicle: Klucel (hydroxypropylcellulose) (HPC)
smiles,measurement,setting,value
S=P(NCCNP(=S)(N1CC1)N1CC1)(N1CC1)N1CC1,T/C,[1],122 % of control
same,T/C,"dose: 33.0 mg/kg/injection, schedule: Q04DX003 (ip), vehicle: saline with Tween-80",165 % of control
same,T/C,[2],95 % of control
same,T/C,[3],170 % of control and 177 % of control
same,T/C,"dose: 75.0 mg/kg/injection, schedule: Q04DX003 (ip), vehicle: saline with Tween-80",90 % of control
same,T/C,[4],86 % of control
Nc1nnn(-c2ccccc2)n1,T/C,[5],102 % of control
same,T/C,[6],101 % of control
same,T/C,[7],102 % of control
O=C(O)c1cc(C(=O)C(=O)c2cc(C(=O)O)c(O)c3ccccc23)c2ccccc2c1O,T/C,[2],95 % of control
same,T/C,[8],95 % of control
same,T/C,[9],101 % of control
O=C(O)/C=N/NS(=O)(=O)Cc1ccccc1,T/C,"dose: 100.0 mg/kg/injection, schedule: Q01DX009 (ip), vehicle: other",185 % of control
same,T/C,"dose: 200.0 mg/kg/injection, schedule: Q01DX009 (ip), vehicle: other",154 % of control and 166 % of control
CN1C(=O)N(C)C(O)(/C=C/c2c(Cl)cccc2Cl)N(C)C1=O,T/C,[10],106 % of control and 92 % of control
same,T/C,[2],94 % of control and 96 % of control
same,T/C,[8],93 % of control and 96 % of control
same,T/C,[9],89 % of control and 91 % of control
CCOC(=O)c1ccc(NC(=O)Nc2nc3ccc(OC)cc3s2)cc1,T/C,"dose: 25.0 mg/kg/injection, schedule: Q01DX009 (ip), vehicle: distilled water + Tween-80",91 % of control
same,T/C,"dose: 50.0 mg/kg/injection, schedule: Q01DX009 (ip), vehicle: distilled water + Tween-80",89 % of control
same,T/C,"dose: 100.0 mg/kg/injection, schedule: Q01DX009 (ip), vehicle: distilled water + Tween-80",91 % of control
same,T/C,"dose: 200.0 mg/kg/injection, schedule: Q01DX009 (ip), vehicle: distilled water + Tween-80",89 % of control
same,T/C,"dose: 400.0 mg/kg/injection, schedule: Q01DX009 (ip), vehicle: distilled water + Tween-80",89 % of control
[O-][n+]1nccnc1N1CCCCC1,T/C,"dose: 100.0 mg/kg/injection, schedule: Q04DX002 (ip), vehicle: saline",90 % of control
same,T/C,"dose: 200.0 mg/kg/injection, schedule: Q04DX002 (ip), vehicle: saline",98 % of control
same,T/C,"dose: 400.0 mg/kg/injection, schedule: Q04DX002 (ip), vehicle: saline",100 % of control
Nc1cccc(CC(=O)Nc2ccccc2)c1,T/C,"dose: 100.0 mg/kg/injection, schedule: Q04DX002 (ip), vehicle: Klucel (hydroxypropylcellulose) (HPC)",100 % of control
same,T/C,"dose: 200.0 mg/kg/injection, schedule: Q04DX002 (ip), vehicle: Klucel (hydroxypropylcellulose) (HPC)",97 % of control
CC1(C)C(=O)C2=C(Nc3ccccc3C2C(C)(C)C)c2ccccc21 (stereo not drawn),T/C,"dose: 50.0 mg/kg/injection, schedule: Q01DX005 (ip), vehicle: Klucel (hydroxypropylcellulose) (HPC)",99 % of control
same,T/C,"dose: 100.0 mg/kg/injection, schedule: Q01DX005 (ip), vehicle: Klucel (hydroxypropylcellulose) (HPC)",93 % of control
same,T/C,"dose: 200.0 mg/kg/injection, schedule: Q01DX005 (ip), vehicle: Klucel (hydroxypropylcellulose) (HPC)",92 % of control
OC1C(CCl)OC(OC2(CCl)OC(CCl)C(O)C2O)C(O)C1O (stereo not drawn),T/C,"dose: 50.0 mg/kg/injection, schedule: Q01DX009 (ip), vehicle: Klucel (hydroxypropylcellulose) (HPC)",94 % of control
same,T/C,[11],109 % of control
same,T/C,[12],110 % of control
C/C(=N\N=C(/[Se])N1CCCCCC1)c1ccccn1,T/C,"dose: 25.0 mg/kg/injection, schedule: Q04DX003 (ip), vehicle: Klucel (hydroxypropylcellulose) (HPC)",110 % of control
same,T/C,"dose: 50.0 mg/kg/injection, schedule: Q04DX003 (ip), vehicle: Klucel (hydroxypropylcellulose) (HPC)",118 % of control
same,T/C,[13],86 % of control
C[C@]12CCC(=O)C(O)=C1CC[C@@H]1[C@@H]2CC[C@@]2(C)[C@H]1CC[C@]2(C)O,T/C,[10],92 % of control
same,T/C,[1],100 % of control
same,T/C,[2],100 % of control
same,T/C,[3],105 % of control
same,T/C,[8],98 % of control
same,T/C,[4],101 % of control
same,T/C,[9],101 % of control
same,T/C,"dose: 200.0 mg/kg/injection, schedule: Q04DX003 (ip), vehicle: saline with Tween-80",105 % of control
OCc1cccc2c1Oc1ccccc1S2,T/C,"dose: 100.0 mg/kg/injection, schedule: Q01DX001 (ip), vehicle: saline with Tween-80",98 % of control
same,T/C,"dose: 200.0 mg/kg/injection, schedule: Q01DX001 (ip), vehicle: saline with Tween-80",98 % of control
same,T/C,"dose: 400.0 mg/kg/injection, schedule: Q01DX001 (ip), vehicle: saline with Tween-80",95 % of control
CCCCOC(=O)N[C@H]1CCc2cc(OC)c(OC)c(OC)c2-c2ccc(SC)c(=O)cc21,T/C,"dose: 0.38 mg/kg/injection, schedule: Q01DX009 (ip), vehicle: Klucel (hydroxypropylcellulose) (HPC)",112 % of control
same,T/C,"dose: 0.75 mg/kg/injection, schedule: Q01DX009 (ip), vehicle: Klucel (hydroxypropylcellulose) (HPC)",122 % of control and 123 % of control
same,T/C,"dose: 1.5 mg/kg/injection, schedule: Q01DX009 (ip), vehicle: Klucel (hydroxypropylcellulose) (HPC)",114 % of control
same,T/C,"dose: 12.0 mg/kg/injection, schedule: Q01DX009 (ip), vehicle: Klucel (hydroxypropylcellulose) (HPC)",94 % of control
CCOP(=O)(O)C1CCCC(C)[N-]1.CCOP(=O)(O)C1CCCC(C)[N-]1.CCOP(=O)(O)C1CCCC(C)[N-]1.[Cr+3] (stereo not drawn),T/C,"dose: 100.0 mg/kg/injection, schedule: Q04DX003 (ip), vehicle: Klucel (hydroxypropylcellulose) (HPC)",100 % of control
same,T/C,[13],92 % of control
O=C1OC(C2OC(=O)C(=O)C2C(=O)c2ccc(Cl)cc2)C(C(=O)c2ccc(Cl)cc2)C1=O (stereo not drawn),T/C,"dose: 60.0 mg/kg/injection, schedule: Q01DX005 (ip), vehicle: saline + Tween-80 + alcohol",95 % of control
same,T/C,"dose: 120.0 mg/kg/injection, schedule: Q01DX005 (ip), vehicle: saline + Tween-80 + alcohol",92 % of control
same,T/C,"dose: 240.0 mg/kg/injection, schedule: Q01DX005 (ip), vehicle: saline + Tween-80 + alcohol",94 % of control
O=C1C2=C(Nc3ccccc3N2)OC1c1ccccc1O (stereo not drawn),T/C,"dose: 60.0 mg/kg/injection, schedule: Q01DX005 (ip), vehicle: Klucel (hydroxypropylcellulose) (HPC)",98 % of control
same,T/C,"dose: 120.0 mg/kg/injection, schedule: Q01DX005 (ip), vehicle: Klucel (hydroxypropylcellulose) (HPC)",91 % of control
same,T/C,"dose: 240.0 mg/kg/injection, schedule: Q01DX005 (ip), vehicle: Klucel (hydroxypropylcellulose) (HPC)",91 % of control
CCCCOC(=O)C1CSSCC(NC(C)=O)C(=O)N1 (stereo not drawn),T/C,"dose: 17.5 mg/kg/injection, schedule: Q01DX005 (ip), vehicle: Klucel (hydroxypropylcellulose) (HPC)",101 % of control
same,T/C,"dose: 35.0 mg/kg/injection, schedule: Q01DX005 (ip), vehicle: Klucel (hydroxypropylcellulose) (HPC)",102 % of control
same,T/C,"dose: 70.0 mg/kg/injection, schedule: Q01DX005 (ip), vehicle: Klucel (hydroxypropylcellulose) (HPC)",108 % of control
O=c1oc(-c2ccc(Cl)c([N+](=O)[O-])c2)ns1,T/C,[11],107 % of control
same,T/C,[12],113 % of control
O=c1[nH][nH]c(=O)n2c1cc1oc(-c3ccccc3)cc12,T/C,"dose: 60.0 mg/kg/injection, schedule: Q01DX005 (ip), vehicle: saline with Tween-80",86 % of control
same,T/C,"dose: 120.0 mg/kg/injection, schedule: Q01DX005 (ip), vehicle: saline with Tween-80",90 % of control
same,T/C,"dose: 240.0 mg/kg/injection, schedule: Q01DX005 (ip), vehicle: saline with Tween-80",86 % of control
O=c1cc(-c2ccccc2)[nH]c(=S)[nH]1,T/C,"dose: 50.0 mg/kg/injection, schedule: Q01DX001 (ip), vehicle: Klucel (hydroxypropylcellulose) (HPC)",103 % of control
same,T/C,[5],100 % of control
same,T/C,[6],99 % of control
same,T/C,[7],106 % of control
CN(C/C(=N/O)c1ccccc1)C(=O)c1ccccc1,T/C,"dose: 50.0 mg/kg/injection, schedule: Q01DX005 (ip), vehicle: saline",98 % of control
same,T/C,"dose: 100.0 mg/kg/injection, schedule: Q01DX005 (ip), vehicle: saline",100 % of control
same,T/C,"dose: 200.0 mg/kg/injection, schedule: Q01DX005 (ip), vehicle: saline",97 % of control
O=C1c2ccccc2C(=O)N1C(CO)Cc1ccccc1 (stereo not drawn),T/C,[2],100 % of control
same,T/C,[8],95 % of control
same,T/C,[9],108 % of control
